In publication PMC11170711, “Pharmacophore Virtual Screening Identifies Riboflavin as an Inhibitor of the Schistosome Cathepsin B1 Protease with Antiparasitic Activity” (ACS Omega, 2024):

Molecular target: T1, human cathepsin B (Homo sapiens, UniProt P07858)
T1 construct: gene CTSB
Experiment: fluorogenic Z-RR-AMC hydrolysis assay with recombinant enzyme, without and with […] Triton X-[…] with detergent
Format: biochemical

With `Cc1cc2nc3c(=O)[nH]c(=O)nc-3n(C[C@H](O)[C@H](O)[C@H](O)CO)c2cc1C` [RBF, riboflavin] the IC50 was 12.1 ± 1.86 µM.
